# According to publication PMC7689096, “Cyclizing Painkillers: Development of Backbone-Cyclic TAPS Analogs” (Frontiers in Chemistry, 2020):
# Several values for one entry are separate records, joined by “and”; a condition that tells them apart may be missing. Equal entries are not always repeated.
# Experiments:
# [1] = Caco-2 permeability assay
# [2] = target: T1, δ (DOP, OPRD2) opioid receptor (Mus musculus, UniProt P32300); test: DOP opioid receptor functional antagonism in NG-10815 cells; format: cell-based, rat; conditions: Between 10^−9-10^−6 M, percent inhibition of control specific agonist response
# T1 construct: NG-10815 cells which express significant endogenous levels of δ opioid receptors; host or cells: NG-10815 (NG108-15) mouse N18TG2 neuroblastoma x rat C6-BU-1 glioma hybrid cells
# Experimental: (§1) Peptides were tested for μ (MOP, OPRM1) and δ (DOP, OPRD2) opioid receptor activation functional agonism and antagonism using CHO cells expressing human recombinant μ receptors and NG-10815 cells which express significant endogenous levels of δ opioid receptors. The cultures were incubated for 10 min at 37°C followed by impedance measurements of CHO cells and cAMP was assayed by the HTRF method using NG-10815 cells, according to CEREP standard assay protocols. The respective reference, non-peptide small molecules were tested concurrently with the TAPS analogs. The agonist compounds were: DPDPE (selective agonist of DOP receptor) and DAMGO (high MOP receptor specificity) and the antagonist compounds were: Naltrindole (selective DOP receptor antagonist) and CTOP (MOP receptor antagonist). […] The results are expressed as a percentage of respective control-specific response. […] These findings indicate that TAPS cyclic peptides are MOP selective full agonists. […] The cyclic TAPS peptide had lower activity than the linear parent TAPS peptide (90 ± 5%) – a finding that can be attributed to their restricted conformation relative to the flexible linear peptide conformation.
# (§2) The respective reference, non-peptide small molecules were tested concurrently with the TAPS analogs; Agonist compounds DPDPE ([D-Pen2,D-Pen5]enkephalin), selective agonist of DOP receptor at 2 × 10^−9 M and DAMGO ([D-Ala2, N-MePhe4, Gly-ol] enkephalin), high MOP specificity at 2.5 × 10^−9 M; Antagonist compounds: naltrindole 7-(cyclopropylmethyl)-6,7-dehydro-4,5α-epoxy-3,14-dihydroxy-6,7-2′,3′-indolomorphinan hydrochloride, selective DOP antagonist, 5 × 10^−10 M and CTOP (D-Phe-Cys-Tyr-D-Trp-Orn-Thr-Pen-Thr-NH2), MOP antagonist at 3.4 × 10^−7 M. Depending on the assay volume and solvent tolerance, the stock solutions were diluted to [100×], [333×] or [1,000×] in 100% DMEM solvent, then either added directly or further diluted to [10×] or [5×] in H2O or Hank's balanced salt solution (HBSS) before addition to the assay well (final solvent concentration kept constant). The cultures were incubated for 10 min at 37°C followed by impedance measurements using cellular dielectric spectroscopy of CHO cells and cAMP was assayed by homogeneous time resolved fluorescence (HTRF) method using NG-10815 cells, according to CEREP standard assay protocols (https://euroscreenfast.com/assays/opioid-orl1-camp-fast-0360c; https://euroscreenfast.com/assays/opioid-op1-delta-camp-fast-0379c). The results (mean of three experiments) are expressed as a percent of control specific agonist response [(measured TAPS specific response/control specific agonist response) × 100] and as a percent inhibition of control specific agonist response [100 – (measured TAPS specific response/control specific agonist response) × 100] obtained in the presence of the TAPS compounds. Results showing a stimulation or an inhibition lower than 25% were considered not significant and mostly attributable to variability of the signal around the control level. Results showing a stimulation or an inhibition higher than 50% were considered to represent significant effects of the TAPS compounds.
# [3] = target: T2, human recombinant μ (MOP, OPRM1) receptor (Homo sapiens, UniProt P35372); test: MOP opioid receptor functional agonism in CHO cells expressing human recombinant μ receptors; format: cell-based; conditions: At 10^−6 M, percent of control specific agonist response, values lower than 25% not significant
# T2 construct: host or cells: CHO cells
# Experimental: as §1
# Evaluation of the Agonist Activity of Compounds at the Human μ Receptor in Transfected CHO Cells, Determined by Measuring Their Effects on cAMP modulation Using the HTRF Detection Method
# Thereafter, the adenylyl cyclase activator NKH 477 is added at a final concentration of […]. Following 10 min incubation at 37°C, the cells are lysed and the fluorescence acceptor (D2-labeled cAMP) and fluorescence donor (anti-cAMP antibody labeled with europium cryptate) are added. After 60 min at room temperature, the fluorescence transfer is measured at lex = 337 nm and lem = 620 and 665 nm using a microplate reader (Rubystar, BMG). The cAMP concentration is determined by dividing the signal measured at 665 nm by that measured at 620 nm (ratio). The results are expressed as a percent of the control response to 1 μM DAMGO. The standard reference agonist is DAMGO, which is tested in each experiment at several concentrations to generate a concentration-response curve from which its EC50 value is calculated.
# as §2, with “Results showing a stimulation or an inhibition lower than 25% were considered not significant and mostly attributable to variability of the signal around the control level. Results showing a stimulation or an inhibition higher than 50% were considered to represent significant effects of the TAPS compounds.” left out
# T2 sequence (P35372 whole entry): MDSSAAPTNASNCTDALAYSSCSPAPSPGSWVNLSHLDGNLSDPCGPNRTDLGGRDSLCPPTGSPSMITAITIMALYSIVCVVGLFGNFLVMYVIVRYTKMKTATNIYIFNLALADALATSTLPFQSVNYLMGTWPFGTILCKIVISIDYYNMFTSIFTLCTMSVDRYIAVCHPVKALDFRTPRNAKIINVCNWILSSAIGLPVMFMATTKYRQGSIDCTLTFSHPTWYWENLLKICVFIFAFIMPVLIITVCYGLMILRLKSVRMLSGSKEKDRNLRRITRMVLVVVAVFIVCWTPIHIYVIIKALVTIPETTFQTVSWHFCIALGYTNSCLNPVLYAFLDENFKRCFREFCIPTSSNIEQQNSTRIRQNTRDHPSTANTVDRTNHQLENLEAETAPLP
# T1 sequence (P32300 whole entry): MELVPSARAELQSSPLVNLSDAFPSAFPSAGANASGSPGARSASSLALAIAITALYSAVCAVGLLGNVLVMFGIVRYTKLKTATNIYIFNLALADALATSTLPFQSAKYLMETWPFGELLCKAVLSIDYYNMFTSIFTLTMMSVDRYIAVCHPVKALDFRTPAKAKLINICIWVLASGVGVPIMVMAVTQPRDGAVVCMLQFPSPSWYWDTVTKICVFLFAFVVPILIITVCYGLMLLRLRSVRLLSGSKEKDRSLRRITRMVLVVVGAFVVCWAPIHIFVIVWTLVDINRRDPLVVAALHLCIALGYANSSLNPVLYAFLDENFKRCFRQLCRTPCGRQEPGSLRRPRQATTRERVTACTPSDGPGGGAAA
smiles,measurement,setting,value
N=C(N)NCCC[C@@H]1C(=O)N[C@@H](Cc2ccccc2)C(=O)N(CC(N)=O)CCNC(=O)NCCCCCCN1C(=O)[C@@H](N)Cc1ccc(O)cc1 [TAPS c(2-6)],Papp,[1],110 nm/s
same,Papp A→B,[1],0.38 nm/s
same,Papp B→A,[1],0.5 nm/s
same,DOP antagonist (%),[2],6%
same,MOP agonist (%),[3],48 ± 3% and 48^** %
